{
  "source": "patent US20240308996A1",
  "about": "“PYRIDOPYRIDINES AND DERIVATIVES THEREOF AS SELECTIVE KINASE INHIBITORS” (University of Sharjah, priority 2023, published 2024)",
  "type_in_all_cases": "cell-based",
  "key": {"[1]": {"system": "K-562", "assay": "NCI-60 cell line panel: K-562", "parameters": "TGI: unit not given here", "procedure": "(§1) It was carried out at the NCI, Bethesda, MD, USA, utilizing their standard protocol."}, "[2]": {"system": "MOLT-4", "assay": "NCI-60 cell line panel: MOLT-4", "parameters": "TGI: unit not given here", "details": "Leukemia", "procedure": "as §1"}, "[3]": {"system": "RPMI-8226", "assay": "NCI-60 cell line panel: RPMI-8226", "details": "Leukemia", "procedure": "as §1"}, "[4]": {"system": "HOP-62", "assay": "NCI-60 cell line panel: HOP-62", "details": "Non-Small Cell Lung Cancer", "procedure": "as §1"}, "[5]": {"system": "HOP-92", "assay": "NCI-60 cell line panel: HOP-92", "parameters": "TGI: unit not given here", "details": "Non-Small Cell Lung Cancer", "procedure": "as §1"}, "[6]": {"system": "NCI-H322M", "assay": "NCI-60 cell line panel: NCI-H322M", "details": "Non-Small Cell Lung Cancer", "procedure": "as §1"}, "[7]": {"system": "NCI-H460", "assay": "NCI-60 cell line panel: NCI-H460", "details": "Non-Small Cell Lung Cancer", "procedure": "as §1"}, "[8]": {"system": "NCI-H522", "assay": "NCI-60 cell line panel: NCI-H522", "parameters": "TGI: unit not given here", "details": "Non-Small Cell Lung Cancer", "procedure": "as §1"}, "[9]": {"system": "HCT-116", "assay": "NCI-60 cell line panel: HCT-116", "details": "Colon Cancer", "procedure": "as §1"}, "[10]": {"system": "SW-620", "assay": "NCI-60 cell line panel: SW-620", "details": "Colon Cancer", "procedure": "as §1"}, "[11]": {"system": "SF-268", "assay": "NCI-60 cell line panel: SF-268", "details": "CNS Cancer", "procedure": "as §1"}, "[12]": {"system": "SF-295", "assay": "NCI-60 cell line panel: SF-295", "details": "CNS Cancer", "procedure": "as §1"}, "[13]": {"system": "SF-539", "assay": "NCI-60 cell line panel: SF-539", "details": "CNS Cancer", "procedure": "as §1"}, "[14]": {"system": "LOX IMVI", "assay": "NCI-60 cell line panel: LOX IMVI", "details": "Melanoma", "procedure": "as §1"}, "[15]": {"system": "M14", "assay": "NCI-60 cell line panel: M14", "details": "Melanoma", "procedure": "as §1"}, "[16]": {"system": "MDA-MB-435", "assay": "NCI-60 cell line panel: MDA-MB-435", "parameters": "TGI: unit not given here", "details": "Melanoma", "procedure": "as §1"}, "[17]": {"system": "OVCAR-4", "assay": "NCI-60 cell line panel: OVCAR-4", "details": "Ovarian Cancer", "procedure": "as §1"}, "[18]": {"system": "SK-OV-3", "assay": "NCI-60 cell line panel: SK-OV-3", "details": "Ovarian Cancer", "procedure": "as §1"}, "[19]": {"system": "CAKI-1", "assay": "NCI-60 cell line panel: CAKI-1", "parameters": "TGI: unit not given here", "details": "Renal Cancer", "procedure": "as §1"}, "[20]": {"system": "TK-10", "assay": "NCI-60 cell line panel: TK-10", "details": "Renal Cancer", "procedure": "as §1"}, "[21]": {"system": "UO-31", "assay": "NCI-60 cell line panel: UO-31", "parameters": "TGI: unit not given here", "details": "Renal Cancer", "procedure": "as §1"}, "[22]": {"system": "PC-3", "assay": "NCI-60 cell line panel: PC-3", "details": "Prostate Cancer", "procedure": "as §1"}, "[23]": {"system": "DU-145", "assay": "NCI-60 cell line panel: DU-145", "details": "Prostate Cancer", "procedure": "as §1"}, "[24]": {"system": "T-47D", "assay": "NCI-60 cell line panel: T-47D", "details": "Breast Cancer", "procedure": "as §1"}, "[25]": {"system": "MDA-MB-468", "assay": "NCI-60 cell line panel: MDA-MB-468", "details": "Breast Cancer", "procedure": "as §1"}, "[26]": {"system": "HepG2", "assay": "MTT assay, HepG2 HCC cell line", "details": "Homo sapiens, 48 h, mean of triplicate assays ± SEM", "procedure": "(§2) Two HCC cell lines (Hep3B and HepG2) were used for screening the antiproliferative activity of the synthesized compounds. The cell lines were obtained from the European Collection of Cell Cultures (ECACC, UK) and maintained in Dulbecco's Modified Eagle Medium (DMEM: Sigma-Aldrich) supplemented with 10% fetal bovine serum (FBS) and 1% penicillin/streptomycin and incubated at 37° C. in a 5% CO2 air atmosphere. In addition, WI-38 normal cell line was used to investigate the safety of these compounds.\nMTT assay was conducted to calculate the IC50 of the compounds following the reported procedure . Briefly, the cells were seeded in 96-well tissue culture plates with a density of 5×10^4 cells/well and incubated overnight at 37° C. in a 5% CO2 air atmosphere. […] DMSO was used as a negative control. After 48 h, the media were aspirated, and replaced with media containing 0.5 mg/mL of MTT tetrazolium dye (Sigma-Aldrich) for 2 h at 37° C. Finally, the media were removed and 200 μL of DMSO was added to solubilize the formazan crystals. Absorbance was then measured at 570 nm using Varioskan Flash multimode plate reader (Thermo Scientific, Massachusetts, USA)."}, "[27]": {"system": "hepatocellular carcinoma cell lines", "assay": "Screening against HCC cell lines", "procedure": "The target compounds were tested against hepatocellular carcinoma cell lines. Compounds 1j. 13a. 13b. 13c. […] The mean inhibition percentage values are illustrated in Table 9.\nas §2\nMTT assay was conducted to calculate the IC50 of the compounds following the reported procedure . Briefly, the cells were seeded in 96-well tissue culture plates with a density of 5×10^4 cells/well and incubated overnight at 37° C. in a 5% CO2 air atmosphere. After that, cells were treated with the newly synthesized compounds or sorafenib as a positive control. DMSO was used as a negative control. After 48 h, the media were aspirated, and replaced with media containing 0.5 mg/mL of MTT tetrazolium dye (Sigma-Aldrich) for 2 h at 37° C. Finally, the media were removed and 200 μL of DMSO was added to solubilize the formazan crystals. Absorbance was then measured at 570 nm using Varioskan Flash multimode plate reader (Thermo Scientific, Massachusetts, USA)."}},
  "data": [
    {"smiles": "CC(C)NC(=O)c1cc(-c2ccc(NC(=O)Nc3ccc(N4CCN(C)CC4)c(C(F)(F)F)c3)cc2)nc2cccnc12", "note": "[Compound 13e, N-Isopropyl-2-(4-(3-(4-(4-methylpiperazin-1-yl)-3-(trifluoromethyl)phenyl)ureido)phenyl)-1,5-naphthyridine-4-carboxamide]", "values": [
      {"measurement": "IC50", "setting": "[1]; Homo sapiens, K562, Leukemia", "value": 920, "unit": "nM"},
      {"measurement": "TGI", "setting": "[1]; Leukemia, total growth inhibition", "value": ">38.8"},
      {"measurement": "IC50", "setting": "[2]; Homo sapiens", "value": 760, "unit": "nM"},
      {"measurement": "TGI", "setting": "[2]; total growth inhibition", "value": 2.89},
      {"measurement": "IC50", "setting": "[3]; Homo sapiens", "value": 980, "unit": "nM"},
      {"measurement": "TGI", "setting": "[3]; total growth inhibition", "value": 3.48, "unit": "µM"},
      {"measurement": "IC50", "setting": "[4]; Homo sapiens", "value": 870, "unit": "nM"},
      {"measurement": "TGI", "setting": "[4]; total growth inhibition", "value": 1.94, "unit": "µM"},
      {"measurement": "IC50", "setting": "[5]; Homo sapiens", "value": 700, "unit": "nM"},
      {"measurement": "TGI", "setting": "[5]; total growth inhibition", "value": 1.33},
      {"measurement": "IC50", "setting": "[6]; Homo sapiens", "value": 710, "unit": "nM"},
      {"measurement": "TGI", "setting": "[6]; total growth inhibition", "value": 1.55, "unit": "µM"},
      {"measurement": "IC50", "setting": "[7]; Homo sapiens", "value": 700, "unit": "nM"},
      {"measurement": "TGI", "setting": "[7]; total growth inhibition", "value": 1.31, "unit": "µM"},
      {"measurement": "IC50", "setting": "[8]; Homo sapiens", "value": 670, "unit": "nM"},
      {"measurement": "TGI", "setting": "[8]; total growth inhibition", "value": 1.37},
      {"measurement": "TGI", "setting": "[9]; total growth inhibition", "value": 1.35, "unit": "µM"},
      {"measurement": "IC50", "setting": "[9]; Homo sapiens", "value": 690, "unit": "nM"},
      {"measurement": "TGI", "setting": "[10]; total growth inhibition", "value": 1.3, "unit": "µM"},
      {"measurement": "IC50", "setting": "[10]; Homo sapiens", "value": 680, "unit": "nM"},
      {"measurement": "TGI", "setting": "[11]; total growth inhibition", "value": 1.62, "unit": "µM"},
      {"measurement": "IC50", "setting": "[11]; Homo sapiens", "value": 700, "unit": "nM"},
      {"measurement": "TGI", "setting": "[12]; total growth inhibition, unit assumed", "value": 1.13, "unit": "µM"},
      {"measurement": "IC50", "setting": "[12]; Homo sapiens", "value": 570, "unit": "nM"},
      {"measurement": "TGI", "setting": "[13]; total growth inhibition", "value": 0.99, "unit": "µM"},
      {"measurement": "IC50", "setting": "[13]; Homo sapiens", "value": 500, "unit": "nM"},
      {"measurement": "IC50", "setting": "[14]; Homo sapiens", "value": 620, "unit": "nM"},
      {"measurement": "TGI", "setting": "[14]; total growth inhibition", "value": 1.15, "unit": "µM"},
      {"measurement": "IC50", "setting": "[15]; Homo sapiens", "value": 670, "unit": "nM"},
      {"measurement": "TGI", "setting": "[15]; total growth inhibition", "value": 1.41, "unit": "µM"},
      {"measurement": "IC50", "setting": "[16]; Homo sapiens", "value": 620, "unit": "nM"},
      {"measurement": "TGI", "setting": "[16]; total growth inhibition", "value": 1.26},
      {"measurement": "IC50", "setting": "[17]; Homo sapiens", "value": 740, "unit": "nM"},
      {"measurement": "TGI", "setting": "[17]; total growth inhibition, in µM (unit assumed)", "value": 1.62},
      {"measurement": "IC50", "setting": "[18]; Homo sapiens", "value": 2930, "unit": "nM"},
      {"measurement": "TGI", "setting": "[18]; total growth inhibition", "value": 8.23, "unit": "µM"},
      {"measurement": "IC50", "setting": "[19]; Homo sapiens", "value": 650, "unit": "nM"},
      {"measurement": "TGI", "setting": "[19]; total growth inhibition", "value": 1.22},
      {"measurement": "IC50", "setting": "[20]; Homo sapiens", "value": 710, "unit": "nM"},
      {"measurement": "TGI", "setting": "[20]; total growth inhibition", "value": 1.31, "unit": "µM"},
      {"measurement": "IC50", "setting": "[21]; Homo sapiens", "value": 590, "unit": "nM"},
      {"measurement": "TGI", "setting": "[21]; total growth inhibition", "value": 1.11},
      {"measurement": "IC50", "setting": "[22]; Homo sapiens", "value": 720, "unit": "nM"},
      {"measurement": "TGI", "setting": "[22]; total growth inhibition", "value": 1.52, "unit": "µM"},
      {"measurement": "IC50", "setting": "[23]; Homo sapiens", "value": 720, "unit": "nM"},
      {"measurement": "TGI", "setting": "[23]; total growth inhibition", "value": 1.35, "unit": "µM"},
      {"measurement": "TGI", "setting": "[24]; total growth inhibition", "value": 24.7, "unit": "µM"},
      {"measurement": "IC50", "setting": "[24]; Homo sapiens, T47D", "value": 7.62, "unit": "µM"},
      {"measurement": "TGI", "setting": "[25]; total growth inhibition", "value": 1.36, "unit": "µM"},
      {"measurement": "IC50", "setting": "[25]; Homo sapiens", "value": 710, "unit": "nM"},
      {"measurement": "IC50", "setting": "[26]", "value": "800 ± 40", "unit": "nM"},
      {"measurement": "inhibition activity against hepatocellular carcinoma cell lines compared with sorafenib", "setting": "[27]", "value": "higher inhibition activity than sorafenib"}
    ]}
  ]
}
